Our source for the inhibition values is ChEMBL document CHEMBL1128084, “A general method for synthesis of ether phospholipids with -linolenic acid and their properties” (Bioorg Med Chem Lett, 1995).

The nature of this assay: Inhibiting aggregation of rabbit platelet induced by platelet-activating factor. As to conditions: Oryctolagus cuniculus; concentration not given here.

As usually defined, the inhibition is the share of the control response that was lost under treatment. Read a low inhibition as a response near the control. `CC/C=C/C/C=C/C/C=C/CCCCCCCCC(=O)O[C@@H](COCCCCCCCCCCCCCCCC)COP(=O)([O-])OCC[N+](C)(C)C` yielded an inhibition of 4.3%.
